Measured values published in patent US20040091527A1, “Method of increasing the bioavailability and tissue penetration of azithromycin” (Pfizer Inc, priority 2000, published 2004).
Entries after “also recorded” stand apart in the source; their conditions may differ.

Tests used:
Caco-2 cell monolayers = experiment: Azithromycin transport across Caco-2 cell monolayers, with and without P-glycoprotein inhibitors; type: in vitro ADME
Description: Caco-2 cell monolayers were grown on permeable transwell-col filter supports (24.5 mm diameter, 0.45 μm pore size) and used in these studies at day 21-24. 2 mls of 0.4 μM ^14C Azithromycin in Hank's balanced salt solution (HBSS) was added to the donor chamber and 2 mls of HBSS was added to the acceptor chamber. An impermeable marker, ^3H Mannitol, was included in these studies to ensure the monolayers were intact. […] Transport was monitored in the apical to basolateral (absorptive) and basolateral to apical (secretory) direction. The wells were incubated for 1 hour (unstirred) at 37° C. Samples were removed after the incubation period and analyzed by dual label LSC. The transport was calculated as percent flux/hr. [formula]
Transport measurements were made in controls, implemented in like fashion except no test compound was included.

[1] = humans, no p-gp inhibitor; cited from earlier work
[2] = in vivo; cited from earlier work
[3] = dog, intravenous radiolabeled dose; cited from earlier work
[4] = cited from earlier work
[5] = test system: CACO-2 (colon carcinoma) cells; conditions: cultured CACO-2 cells; cited from earlier work
clinical = conditions: human, serum, po, 1200 mg
Description: (§1) Healthy volunteers received nelfinavir for 11 days. On Day 9 a single dose of azithromycin was administered. Each subject also received a single control dose of 1200 mg azithromycin either two weeks before the start of a nelfinavir treatment regimen or three weeks after a nelfinavir treatment regimen.
(§2) Nelfinavir was administered as 3 commercial 250 mg tablets, 3 times per day (morning dose at approximately 7 am; afternoon dose at approximately 3 pm; evening dose at approximately 10 pm) with food for 11 days. On day 9, azithromycin (1200 mg) was dosed as 2 600 mg commercial tablets at the same time as the morning dose of nelfinavir. On day 9 the subjects, who were previously fasted for at least 8 hr, consumed a standard breakfast consisting of cereal and/or toast with butter and jelly, and milk. Immediately following the standard breakfast, the subjects consumed 750 mg nelfinavir and 1200 mg azithromycin, with 120 ml water. On the day on which azithromycin alone was dosed, 2 600 mg commercial tablets were dosed with 120 ml water, immediately following the standard breakfast.
(§3) Serum samples were assayed for azithromycin utilizing LC/MS/MS. […] Concentrations below the lower limits of quantification were utilized as 0.00 μg/ml in the calculations.
(§4) Maximum observed azithromycin concentrations (Cmax) were determined by inspection of the data. Tmax was defined as the time of first occurrence of Cmax. […] Area under the serum concentration versus time curves (AUClast) were calculated for the interval of pre-dose to the last time at which concentrations of azithromycin were measurable. Total exposure was estimated as AUC for the interval of pre-dose to infinity. AUC=AUClast+C*last/kei, where C*last is the concentration estimated from the aforementioned regression at the time of the last quantifiable concentration of drug.
(§5) Geometric mean values of Cmax, AUC, Cmax ratios, and AUC ratios were determined. Arithmetic means of other parameters were determined.

[6] = in vivo; cited from earlier work; remark: listed apart in the source
[7] = Effect of nelfinavir on the pharmacokinetics of a single oral dose of azithromycin (crossover study); conditions: co-administration with nelfinavir vs azithromycin alone
Description: as §1, §2, §3, §4, §5

SMILES | substrate for the P-glycoprotein efflux transporter (Caco-2 cell monolayers; Caco-2) | % Flux/hr B-A (Caco-2 cell monolayers; human, Caco-2, 1 h, 0.4 μM) [% flux/hr] | % flux/hr A-B (Caco-2 cell monolayers; human, Caco-2, 1 h, 0.4 μM) [% flux/hr] | oral bioavailability [1] [%] | elimination half-life [2] [h] | recovered radiolabel eliminated across the intestinal wall [3] [%] | effect on midazolam plasma levels ([4]; co-dosed with midazolam (Zimmerman et al.; Backman et al.)) | basolateral-to-apical azithromycin flux versus apical-to-basolateral flux [5] | AUC(0-inf) (clinical) [ng·h/mL] | Cmax (clinical) [ng/mL] | interaction with (effect on plasma levels of) HIV protease inhibitors saquinavir, ritonavir, indinavir, nelfinavir [6] | increase of mean AUC0-∞ for azithromycin ([7]; p=0.0001) [%] | increase of mean Cmax ([7]; p=0.0003) [%] | increase in midazolam AUC ([4]; midazolam co-dosed with erythromycin (Zimmerman et al.)) [%]
CC[C@H]1OC(=O)[C@H](C)[C@@H](O[C@H]2C[C@@](C)(OC)[C@@H](O)[C@H](C)O2)[C@H](C)[C@@H](O[C@@H]2O[C@H](C)C[C@H](N(C)C)[C@H]2O)[C@](C)(O)C[C@@H](C)CN(C)[C@H](C)[C@@H](O)[C@]1(C)O [Azithromycin, 9a-aza-9a-methyl-9deoxo-9a-homoerythromycin A] | is a substrate | 6.6 | 0.1 | 37 | 69 | 40 | no effect; also recorded: did not increase | exceeded | 11500 | 889 | does not interact | 112 | 137 | –
CC[C@H]1OC(=O)[C@H](C)[C@@H](O[C@H]2C[C@@](C)(OC)[C@@H](O)[C@H](C)O2)[C@H](C)[C@@H](O[C@@H]2O[C@H](C)C[C@H](N(C)C)[C@H]2O)[C@](C)(OC)C[C@@H](C)C(=O)[C@H](C)[C@@H](O)[C@]1(C)O [clarithromycin] | – | – | – | – | – | – | – | – | – | – | exhibit an interaction with all but nelfinavir | – | – | –
CC[C@H]1OC(=O)[C@H](C)[C@@H](O[C@H]2C[C@@](C)(OC)[C@@H](O)[C@H](C)O2)[C@H](C)[C@@H](O[C@@H]2O[C@H](C)C[C@H](N(C)C)[C@H]2O)[C@](C)(O)C[C@@H](C)C(=O)[C@H](C)[C@@H](O)[C@]1(C)O [erythromycin] | – | – | – | – | – | – | – | – | – | – | – | – | – | 380
